We go through three compounds from article PMC4329990 (2014).

In the assay the test system is d(C3TA2)3C3/d(T2AG3)4 duplex (DNA, duplex) CCCTAACCCTAACCCTAACCC/TTAGGGTTAGGGTTAGGGTTAGGG
The assay is described as follows: fluorescence titration, IT/IN, modified Benesi-Hildebrand. The following applies: citrate 10 mM; 10 mM citrate pH 7.0, <1% ethanol, 25 °C.
Turning to `O=c1c(O)c(-c2ccc(O)c(O)c2)oc2cc(O)cc(O)c12`, the Ka amounted to 10400 M⁻¹. Consider `O=c1c(O)c(-c2ccc(O)c(O)c2)oc2cc(O)ccc12`, for which the Ka is 46200 M⁻¹. Turning to `O=c1c(O)c(-c2ccccc2)oc2ccccc12`, the Ka came out at 86700 M⁻¹.
